Test results as given in patent publication US12544372B2, “Methods of treating rheumatoid arthritis, chronic spontaneous urticaria, and systemic lupus erythematosis using an inhibitor of Bruton's tyrosine kinase” (Genentech, Inc., priority 2019, dated 2026).
Marks after values point to notes of the source that are not given here.

What was measured:
[1] = test system: IgG anti-FcERI autoantibodies; assay: CSU study: serum IgG anti-FcERI autoantibodies (immunoassay); assay type: in vivo, human; conditions: Cohorts 1 and 2, serum, week 0 to 8
Experimental: Some patient samples were also evaluated specifically for IgG anti-FcERI autoantibodies, and the level of those autoantibodies over time in fenebrutinib-administered patients compared to placebo-administered patients is shown in FIG. 37. Serum samples were collected at 0 and 8 weeks from patients receiving fenebrutinib (left) versus placebo (right), with samples sizes for each group shown. Prior to direct FcERI immunoassay, samples were split and pre-incubated with equimolar concentrations of rhFcERI or an unrelated control protein. Reactivity levels were determined relative to a mouse monoclonal antibody standard. IgG anti-FcERI was defined as the difference in reactivity between the split samples, and is shown in relative units (RU). The bold lines without markers represent the average of patients who were anti-FcERI positive at baseline. The dotted line represents the mean+3 standard deviations of healthy volunteer samples. Some sample lines for IgG anti-FcERI negative patients overlap at the lower end of the assay range. […] Without wishing to be bound by any theory, it is thought that anti-FcERI may be a driver of positive CU index test results, and are associated with refractory CSU.

[2] = Phase II SLE study: safety
Source text: The safety objective for this study was to evaluate the safety of fenebrutinib given in combination with SOC in patients with moderate to severe active SLE.
An unblinded IMC and Scientific Oversight Committee is used to monitor multiple safety assessments.

[3] = test system: Plasmablast signature (IgJ, Mzb1, Txndc5); assay: SLE study biomarker: plasmablast signature (RNA from blood); assay type: in vivo, human
Experimental: The following biomarkers were explored according to the biomarker objectives provided above in the Study Objectives. In Table 13, biomarkers are measured at baseline and subsequent timepoints during and after treatment. One set of biomarkers evaluated is the plasmablast signature. Plasmablasts are rapidly dividing, short-lived antibody secreting cells. While they represent a small proportion of B cells in the blood, they are responsible for a majority of antibody transcripts found in whole blood mRNA. The plasmablast signature comprises the biomarkers IgJ, Mzbl, and Txndc5. The gene expression of IgJ, Mzbl, and Txndc5 may be measured, for example, a polypeptide expression by evaluating the level of mRNA for said gene in a patient's blood relative to a reference level.

[4] = test system: patients with moderate to severe active rheumatoid arthritis; assay: Phase II RA study, Cohort 1 (inadequate response to MTX): clinical efficacy (ACR50, DAS28-3-CRP); assay type: in vivo, human; conditions: for DAS 28-3 (CRP) Adjusted Mean / DAS 28-3 (CRP) Difference (d): Week 12; for ACR50 Responders / ACR50 Weighted Difference vs Placebo: Week 12 Day 84; for DAS 28-3 (CRP) Difference (d): versus placebo
Source text: A Two-Cohort Randomized Phase II, Double-Blind, Parallel Group Study in Patients with Active Rheumatoid Arthritis Evaluating the Efficacy and Safety of Fenebrutinib Compared with Placebo and Adalimumab in Patients with an Inadequate Response to Previous Methotrexate Therapy (Cohort 1) and Compared with Placebo in Patients with an Inadequate Response or Intolerance to Previous TNF Therapy (Cohort 2)
This study was designed to evaluate the efficacy and safety of fenebrutinib compared with placebo (Cohorts 1 and 2) and compared with adalimumab (ADA) (Cohort 1), each in combination with methotrexate (MTX), in patients with moderate to severe active rheumatoid arthritis (RA). Specific objectives and corresponding endpoints for the study are outlined below.
The study was a multicenter, Phase II, randomized, double-blind, placebo-controlled, active comparator (Cohort 1 only), parallel-group, dose-ranging study to evaluate the efficacy and safety of fenebrutinib in patients with moderate to severe active RA and an inadequate response to previous MTX therapy (Cohort 1) or MTX and TNF therapy who may have also had exposure to no more than one non-TNF inhibitor biologic (Cohort 2). Moderate to severe active RA was defined by ≥6 tender/painful joints on motion (68 joint count) and ≥6 swollen joints (66 joint count) at both screening and Day 1 (randomization), as well as a high sensitivity C-reactive protein (hsCRP)≥0. 400 mg/dL for Cohort 1 a hsCRP≥0.650 mg/dL for Cohort 2 at screening.
The study enrolled 578 patients. […] After a screening period of up to 28 days, patients in both cohorts received blinded study drug (oral fenebrutinib or matching placebo) for 12 weeks, after which they had the option to enter an 8 week follow-up period or enroll into an open-label extension (OLE) study. In addition to study drug, patients in Cohort 1 were also treated with subcutaneous (SC) comparatory drug (ADA or placebo).
Cohort 1 treatment regimens. […]
Disease Activity Score 28. The DAS 28-4 (CRP) and the DAS 28-4 (ESR) are calculated as follows. Assessments: (i) Tender joint count of 28 joints (TJC28), square-root transformed; (ii) Swollen joint count of 28 joints (SJC28), square-root transformed; (iii) Acute-phase reactant (erythrocyte sedimentation rate [ESR mm/hr] or high sensitivity C-reactive protein [hsCRP mg/L]), log transformed; (iv) Patient's global assessment of disease activity on visual analog scale (0-100 mm).
The DAS 28 is calculated according to the following formulas: DAS 28(4)−ESR=0.56×SQRT(TJC28)+0.28SQRT(SJC28)+0.70×ln(ESR)+0.014×PtGA DAS 28(4)−CRP=0.56×SQRT(TJC28)+0.28SQRT(SJC28)+0.36×ln(CRP+1)+0.014×PtGA+0.96 • Total score: Range, 0.49-9.07 • Disease remission≤2.6 • Disease activity: Low≤3.2; Moderate d>3.2 and ≤5.1; High>5.1 (PtGA=patient's global assessment of disease activity; ln=natural logarithm; SQRT=square root)
ACR Assessments. The ACR's definition for calculating improvement in RA (ACR20) is calculated as a 20% improvement in tender and swollen joint counts and a 20% improvement in 3 of the 5 remaining ACR-core set measures: patient and physician global assessments, pain, disability, and an acute-phase reactant. Similarly, ACR50 and ACR70 are calculated with the respective percent improvements. The Sponsor, on the basis of the component parts, will calculate the ACR score.
The specific components of the ACR Assessments used in this study are as follows: Tender/Painful Joint Count (68), Swollen Joint Count (66), Patient's Assessment of Arthritis Pain, Patient's Global Assessment of Arthritis, Physician's Global Assessment of Arthritis, CRP and HAQ-DI.

Compound: C[C@H]1CN(C2COC2)CCN1c1ccc(Nc2cc(-c3ccnc(N4CCn5c(cc6c5CC(C)(C)C6)C4=O)c3CO)cn(C)c2=O)nc1 [fenebrutinib, (S)-2-(3′-(hydroxymethyl)-1-methyl-5-((5-(2-methyl-4-(oxetan-3-yl)piperazin-1-yl)pyridin-2-yl)amino)-6-oxo-1,6-dihydro-[3,4′-bipyridin]-2′-yl)-7,7-dimethyl-2,3,4,6,7,8-hexahydro-1H-cyclopenta[4,5]pyrrolo[1,2-a]pyrazin-1-one]
- IgG anti-FcERI autoantibodies [1]: significant reduction
- Total number of patients with at least one AE ([2]; 150 mg QD): 77 (89) n (%)
- Total number of patients with at least one AE leading to death ([2]; 150 mg QD): 1 (1) n (%)
- Total number of patients with at least one Serious AE ([2]; 150 mg QD): 4 (5) n (%)
- Total number of patients with at least one AE ([2]; 200 mg BID): 68 (77) n (%)
- Total number of patients with at least one AE leading to death ([2]; 200 mg BID): 0 n (%)
- Total number of patients with at least one Serious AE ([2]; 200 mg BID): 12 (14) n (%)
- ALT and AST elevations ([2]; interim analysis, 200 mg BID arm, some patients): signs of ALT and AST elevations
- safety and tolerability ([2]; interim analysis, each dose): safe and well tolerated
- Plasmablast signature, Median Change from Baseline at Week 48 ([3]; 150 mg QD): −54.3%*
- Plasmablast signature, Median Change from Baseline at Week 48 ([3]; 200 mg BID): −51.7%*
- DAS 28-3 (CRP) Adjusted Mean ([4]; Cohort 1, 50 mg QD): −1.54
- ACR50 Responders ([4]; Cohort 1, 50 mg QD): 7 (17.5%)
- ACR50 Weighted Difference vs Placebo ([4]; Cohort 1, 50 mg QD): 8.00
- DAS 28-3 (CRP) Adjusted Mean ([4]; Cohort 1, 150 mg QD): −1.74
- ACR50 Responders ([4]; Cohort 1, 150 mg QD): 30 (27.5%)
- ACR50 Weighted Difference vs Placebo ([4]; Cohort 1, 150 mg QD): 12.93
- DAS 28-3 (CRP) Difference (d) ([4]; Cohort 1, 50 mg QD): −0.36
- DAS 28-3 (CRP) Difference (d) ([4]; Cohort 1, 150 mg QD): −0.57
